Assay results taken from ChEMBL document CHEMBL1201862, “PubChem BioAssay data set” (2004).
The source made the active and inactive calls.

Columns and labels:
[1] = Late stage assay provider results from the probe development effort to identify selective inhibitors of heat shock protein 90 (HSP90): Absorbance-based cell proliferation assay in SKBR3 cells.; type: functional; conditions: SK-BR-3
[2] = Late stage assay provider results from the probe development effort to identify selective inhibitors of heat shock protein 90 (HSP90): Absorbance-based cell proliferation assay in MCF7 cells.; type: functional
[3] = HeLa cell viability loss – plate reader, dry powder, cytotoxicity control, dose response (AID 651946); type: functional, cell-based
[4] = MITF Measured in Cell-Based System Using Plate Reader - 2084-01_Inhibitor_Dose_DryPowder_Activity_Set7.; type: functional
[5] = MITF Orthogonal Assay: SK-MEL-5 CTG Assay Measured in Cell-Based System Using Plate Reader - 2084-02_Inhibitor_Dose_DryPowder_Activity_Set5.; type: functional
[6] = cytotoxicity in melanoma parental cells – cell-based, CellTiter-Glo, dry powder, set 6, MITF inhibitor project, dose response (AID 624429); type: functional; conditions: SK-MEL-5
[7] = MITF Measured in Cell-Based System Using Plate Reader - 2084-01_Inhibitor_Dose_DryPowder_Activity_Set6.; type: functional
[8] = viability loss in MITF-independent A375 cells – cell-based, CellTiter-Glo luminescence, dry powder, set 7, counter-screen for MITF inhibitor project, dose response (AID 624490); type: functional; conditions: A-375
[9] = biological target: T1, Oxysterols receptor LXR-beta (Homo sapiens, UniProt P55055); type: functional, cell-based;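 also: agonist activity at LXR measured by a cell-based luminescence readout across a dose range, run as a counterscreen for daf-12 agonists; HEK293 cells with Gal4-LXR fusion and GAL4-driven luciferase reporter; potency for activation of Gal4-LXR reporter so compounds are agonists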
T1 sequence (P55055 whole entry): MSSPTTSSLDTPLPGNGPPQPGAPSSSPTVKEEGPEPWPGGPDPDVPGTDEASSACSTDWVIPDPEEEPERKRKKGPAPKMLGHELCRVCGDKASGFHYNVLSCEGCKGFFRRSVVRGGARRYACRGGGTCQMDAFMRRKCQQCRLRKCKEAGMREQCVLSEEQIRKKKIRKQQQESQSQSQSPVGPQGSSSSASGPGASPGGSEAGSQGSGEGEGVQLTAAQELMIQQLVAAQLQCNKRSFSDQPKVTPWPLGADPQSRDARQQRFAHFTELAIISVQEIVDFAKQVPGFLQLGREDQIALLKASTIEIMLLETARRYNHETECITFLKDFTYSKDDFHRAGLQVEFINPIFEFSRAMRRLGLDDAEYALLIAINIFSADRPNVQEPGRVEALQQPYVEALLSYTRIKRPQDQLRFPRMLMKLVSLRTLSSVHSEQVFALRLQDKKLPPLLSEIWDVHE

[10] = growth inhibition of PfATP4-mutant resistant parasites – NITD609-resistant line, SYBR Green, dry powder, dose response (AID 1159571); type: functional, cell-based;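 also: parasites synchronized at ring stage by sorbitol before testing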
[11] = P. falciparum Dd2 growth inhibitors, dose response, SYBR Green, cherry-picked samples (AID 1159567); type: functional, cell-based
[12] = growth inhibition of yeast DHODH-expressing 3D7 parasites – SYBR Green, dry powder samples, dose response (AID 1159570); type: functional, cell-based;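 also: parasite growth measured after 72 hours of compound exposure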
[13] = toxicity to human HepG2 hepatoma cells – cell-based, plate reader, dry powder samples, cytotoxicity control, dose response (AID 1159569); type: functional;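 also: inhibitor potency with signal falling toward the positive control level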
[14] = Plasmodium falciparum Dd2 Sybr green parasite growth Measured in Cell-Based and Microorganism Combination System Using Plate Reader - 2153-01_Inhibitor_Dose_DryPowder_Activity_Set3.; type: functional
[15] = Dd2 malaria parasite growth inhibition potency – SYBR Green, dry powder samples, dose response (AID 1159566); type: functional, cell-based;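 also: potency for growth inhibition with lower SYBR green DNA signal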
[16] = biological target: Metabotropic glutamate receptor 7 (Homo sapiens, UniProt Q14831); assay: potentiation of glutamate EC20 at mGlu7 – cell-based, calcium mobilization, Galpha15, dose response (AID 743384); type: functional
[17] = loss of HEK293T viability via ATP – cell-based, plate reader, dry powder, set 10, cytotoxicity control, dose response (AID 743315); type: functional; conditions: HEK293
[18] = viability loss in HepG2 hepatoma cells – cell-based, ATP luminescence, dry powder, set 2, cytotoxicity control, dose response (AID 743129); type: functional
[19] = RKO cell viability reduction, dose response, CellTiter-Glo luminescence (AID 1117322); type: functional
[20] = cytotoxicity toward HCT116 cells – cell-based, CellTiter-Glo luminescence, IC50, dose response (AID 1117332); type: functional; conditions: HCT-116
[21] = CellTiter-Glo luminescence survival assay, SW480 colon tumor line, concentration-response curve, half-maximal inhibitory concentration (AID 1117338); type: functional
[22] = cytotoxicity toward HT-29 cells – cell-based, CellTiter-Glo luminescence, IC50, dose response (AID 1117330); type: functional
[23] = cytotoxicity toward Colo320 cells – cell-based, CellTiter-Glo luminescence, IC50, dose response (AID 1117334); type: functional; conditions: COLO 320
[24] = SNU-C1 cell viability reduction, dose response, CellTiter-Glo luminescence (AID 1117323); type: functional, cell-based
[25] = HCT116 cell viability decrease, GSK3B pretreatment – CellTiter-Glo, IC50, dose response (AID 1117339); type: functional; conditions: HCT-116
[26] = Reduced DLD-1 viability, concentration-response, CellTiter-Glo luminescence (AID 1117352); type: functional
fMet-Leu-Phe receptor = fMet-Leu-Phe receptor (Homo sapiens, UniProt P21462); assay: formyl peptide receptor binders – dose response (AID 519); type: functional
[27] = IC50 of insulin release inhibition, rat insulinoma INS-1E line, 5 mM glucose, cell-based (AID 1117331); type: functional

Sequence of Metabotropic glutamate receptor 7 (Q14831 whole entry): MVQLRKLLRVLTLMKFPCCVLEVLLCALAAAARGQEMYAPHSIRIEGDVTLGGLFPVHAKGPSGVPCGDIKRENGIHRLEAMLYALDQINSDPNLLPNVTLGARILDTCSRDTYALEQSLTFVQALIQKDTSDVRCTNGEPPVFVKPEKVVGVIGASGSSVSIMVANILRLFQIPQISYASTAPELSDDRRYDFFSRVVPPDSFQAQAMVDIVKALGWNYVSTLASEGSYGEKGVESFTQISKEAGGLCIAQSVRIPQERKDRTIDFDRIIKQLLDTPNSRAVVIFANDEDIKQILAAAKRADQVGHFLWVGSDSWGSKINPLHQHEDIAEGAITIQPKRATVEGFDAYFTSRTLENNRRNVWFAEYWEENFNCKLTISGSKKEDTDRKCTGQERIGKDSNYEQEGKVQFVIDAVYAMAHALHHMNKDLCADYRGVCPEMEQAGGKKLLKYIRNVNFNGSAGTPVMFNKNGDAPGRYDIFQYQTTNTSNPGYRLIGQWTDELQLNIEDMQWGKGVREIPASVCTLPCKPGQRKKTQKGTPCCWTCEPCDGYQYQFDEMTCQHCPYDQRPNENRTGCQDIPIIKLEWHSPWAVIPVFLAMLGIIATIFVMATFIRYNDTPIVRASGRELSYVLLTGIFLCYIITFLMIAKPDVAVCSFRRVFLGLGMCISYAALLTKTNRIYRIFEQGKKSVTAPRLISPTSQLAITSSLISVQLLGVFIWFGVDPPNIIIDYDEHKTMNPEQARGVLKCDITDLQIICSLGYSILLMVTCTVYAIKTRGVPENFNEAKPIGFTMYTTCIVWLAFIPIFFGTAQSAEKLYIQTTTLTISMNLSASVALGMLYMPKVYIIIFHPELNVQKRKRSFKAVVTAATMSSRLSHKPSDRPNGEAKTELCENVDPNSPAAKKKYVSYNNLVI
Sequence of fMet-Leu-Phe receptor (P21462 whole entry): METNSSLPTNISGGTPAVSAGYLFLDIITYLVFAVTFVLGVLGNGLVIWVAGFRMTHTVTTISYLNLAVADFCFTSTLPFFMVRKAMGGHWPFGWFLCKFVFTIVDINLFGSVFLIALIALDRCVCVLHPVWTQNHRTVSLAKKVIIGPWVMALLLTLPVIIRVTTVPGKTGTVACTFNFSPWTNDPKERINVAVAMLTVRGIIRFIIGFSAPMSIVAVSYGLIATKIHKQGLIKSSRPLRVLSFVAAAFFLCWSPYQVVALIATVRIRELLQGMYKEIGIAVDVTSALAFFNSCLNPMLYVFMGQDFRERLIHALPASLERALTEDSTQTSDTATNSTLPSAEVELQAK

Compound: COc1ccccc1NC(=O)c1ccc(=O)oc1
- IC50 [1]: 33.1 µM (inactive)
- IC50 [2]: 30.2 µM (inactive)

Compound: c1ccc(-c2nnc(SCc3ncco3)o2)cc1
- AC50 [3]: > 52 µM (inactive)

Compound: O=C1C(NS(=O)(=O)c2ccccc2)=C(c2ccccc2)C(=O)c2ccccc21
- AC50 [4]: 41 µM (active)
- AC50 [5]: 56.7 µM (active)
- AC50 [6]: 65.6 µM (active)
- AC50 [7]: 61.4 µM (active)
- AC50 [8]: > 70 µM (inactive)

Compound: COC1=C/C(=C/c2c(O)c(C#N)c3ccccn23)C=CC1=O
- EC50 [9]: > 67.5 µM (inactive)

Compound: CCCNC(=O)N1[C@H](C#N)[C@H](c2ccc(C3=CCCCC3)cc2)[C@H]1CO
- AC50 [10]: 0.163 µM (active)
- AC50 [11]: 0.424 µM (active)
- AC50 [12]: 18.3 µM (active)
- AC50 [13]: > 100 µM (inactive)
- AC50 [14]: 0.374 µM (active)
- AC50 [15]: 0.113 µM (active)

Compound: CC(=O)Nc1ccc(OCC(=O)c2cc(C)n(-c3ccc(OC(F)F)cc3)c2C)cc1
- EC50 [16]: 2.4 µM (active)

Compound: Cc1ccc(OCCn2c(SCCO)nc3ccccc32)c(C(C)C)c1
- AC50 [17]: 31.2 µM (active)
- AC50 [18]: 50.8 µM (active)

Compound: CC=CC1C(C(=O)OCc2c(F)c(F)c(COC)c(F)c2F)C1(C)C (stereo not drawn)
- IC50 [19]: > 20 µM (inactive)
- IC50 [20]: > 20 µM (inactive)
- IC50 [21]: > 20 µM (inactive)
- IC50 [22]: > 20 µM (inactive)
- IC50 [23]: > 20 µM (inactive)
- IC50 [24]: > 20 µM (inactive)
- IC50 [25]: > 20 µM (inactive)
- IC50 [26]: > 20 µM (inactive)

Compound: Cc1ccc(C(=O)C2=C(O)C(=O)N(Cc3ccccc3)C2c2cccnc2)o1 (stereo not drawn)
- Ki (fMet-Leu-Phe receptor): > 66.7 µM (inactive)

Compound: CNCCCCOc1ccccc1Cc1ccccc1 [BIFEMELANE]
- IC50 [27]: > 33.3 µM (inactive)
